# Columns and labels:
# Assay type in all cases: in vivo
# [1] = tested on: Female CFLP mice; assay: Hypoglycaemic activity: blood glucose curve after subcutaneous glucose load in fasted mice; conditions: 2 hour period after glucose 1 g/kg s.c., compared with control mice given water
# Experimental: Female CFLP mice, weighing approx. 25 g, were fasted for 24 hours prior to the study. The compounds under study were administered orally as an aqueous solution to each of 6 mice. 30 Minutes later a blood sample ([…]) was obtained from the tail for the analysis of blood glucose. Immediately after taking the blood sample, glucose (1 g/kg body weight) was administered subcutaneously to each mouse. 6 Mice were given water as a control. Blood samples were then obtained from each mouse at 30 minute intervals for 120 minutes. Compounds that produced a significant (P<0.05) reduction on blood glucose, compared with control mice given water, at any time interval, were considered active. The area under the blood glucose curve over the 2 hour period after the administration of the glucose was calculated for each compound and compared with the value for control animals.
# [2] = tested on: genetically obese mice; assay: Anti-obesity activity: carcass lipid of genetically obese mice after daily oral dosing for 28 days
# Experimental: The compounds were administered by oral gavage in water or carboxymethyl-cellulose suspension to genetically obese mice daily for 28 days. At the end of the time the carcass composition was determined.
# [3] = tested on: Male CFLP mice; assay: Platelet aggregation inhibition activity: response of blood platelet concentration to intravenous collagen in mice; conditions: two hours before intravenous collagen
# Experimental: Male CFLP mice (ca 20g, n=11 or 12) were dosed orally with compound or vehicle (controls) after an overnight fast. Two hours later each mouse received an intravenous dose of collagen ([…], pH 6-6.6). Exactly 30 sec. after injection of collagen, each mouse was placed in a chamber of C02 until respiration ceased. […] Each concentration was expressed as a per cent of that obtained in a tail blood sample taken immediately before injection of collagen.
# [4] = tested on: rat ear; assay: Anti-inflammatory activity: croton oil induced inflammation of the rat ear; conditions: topical in irritant vehicle, ear weight after 6 hours, active = significant (5% level) reduction in ear weight vs non-drug treated control
# Experimental: The method used is based on that described by G. Tonelli et al (Endocrinology, 77, 625-634, 1965). An inflammation is induced in the rat ear by the application of 50 µl of a 1% solution of croton oil in tetrahydrofuran, test compounds being dissolved in the irritant vehicle. After 6 hours the inflammation is assessed by killing the animals and weighing the ears. Topical anti-inflammatory activity of a compound is generally considered to be shown when a significant (5% level) reduction in ear weight is seen compared to non-drug treated control.
smiles,measurement,setting,value
"CNCCCCc1ccc(CC(C)NCC(O)c2cccc(Cl)c2)cc1 (stereo not shown) [Example 27, N-(2-(4-(4-N'-Methylaminobutyl)phenyl)-1-methylethyl)-2-hydroxy-2-(3-chlorophenyl) ethanamine]",REDUCTION IN AREA UNDER BLOOD GLUCOSE CURVE (%),[1]; 2.5 µ mol/kg orally,10%
"CNCc1ccc(CC(C)NCC(O)c2cccc(F)c2)cc1 (stereo not shown) [Example 9, N-(2-(4-N'-Methylaminomethylphenyl)-1-methylethyl)-2-hydroxy-2-(3-fluorophenyl) ethanamine]",g LIPID/MOUSE TREATED,"[2]; 10.8 mg/kg p.o. daily for 28 days, control 22.95",20.63 g
"CNCc1ccc(CC(C)NCC(O)c2cccc(C(F)(F)F)c2)cc1 (stereo not shown) [Example 3, N-(2-(4-N'-Mcthylaminomethylphenyl)-1-methylethyl)-2-hydroxy-2-(3-trifluoromethylphenyl) ethanamine]",g LIPID/MOUSE TREATED,"[2]; 12.2 mg/kg p.o. daily for 28 days, control 20.98",18.56 g
same,% Inhibition of re-sponse to collagen,[3]; 10 µmol/kg p.o.,25 p<0.02%
"CC(Cc1ccc(CN(C)C)cc1)NCC(O)c1cccc(C(F)(F)F)c1 (stereo not shown) [Example 4, N-(2-(4-N'N'-Dimethylaminomethylphenyl)-1-methylethyl)-2-hydroxy-2-(3-trifluoromethylphenyl) ethanamine]",REDUCTION IN AREA UNDER BLOOD GLUCOSE CURVE (%),[1]; 12.5 µ mol/kg orally,31%
"CC(Cc1ccc(CN)cc1)NCC(O)c1cccc(C(F)(F)F)c1 (stereo not shown) [Example 2, N-(2-(4-Aminomethylphenyl)-1-methylethyl)-2-hydroxy-2-(3-trifluoromethylphenyl) ethanamine]",g LIPID/MOUSE TREATED,"[2]; 11.8 mg/kg p.o. daily for 28 days, control 25.09",20.87 g
same,REDUCTION IN AREA UNDER BLOOD GLUCOSE CURVE (%),[1]; 2.5 µ mol/kg orally,24%
same,ACTIVITY,[4]; 0.5 mg/rat ear,Active
same,% Inhibition of re-sponse to collagen,[3]; 10 µmol/kg p.o.,29 p<0.01%
"CNCc1ccc(C[C@@H](C)NC[C@H](O)c2cccc(C(F)(F)F)c2)cc1 (racemic) [Example 15, (RR,SS) N-(2-(4-N'-Methylaminomethylphenyl)-1-methylethyl)-2-hydroxy-2-(3-trifluoromethylphenyl) ethanamine]",REDUCTION IN AREA UNDER BLOOD GLUCOSE CURVE (%),[1]; 2.5 µ mol/kg orally,19%
"CNCc1ccc(C[C@@H](C)NC[C@H](O)c2cccc(Cl)c2)cc1 (racemic) [Example 16, (RR,SS) N-(2-(4-N'-Methylaminomethylphenyl)-1-methylethyl) -2-hydroxy-2-(3-chlorophenyl) ethanamine]",g LIPID/MOUSE TREATED,"[2]; 11.3 mg/kg p.o. daily for 28 days, control 22.55",16.03 g
same,REDUCTION IN AREA UNDER BLOOD GLUCOSE CURVE (%),[1]; 2.5 µ mol/kg orally,33%
"CNCCCc1ccc(CC(C)NCC(O)c2cccc(C(F)(F)F)c2)cc1 (stereo not shown) [Example 14, N-(2-(4-(3-N'-Methylaminopropyl)phenyl)-1-methylethyl)-2-hydroxy-2-(3-trifluoromethylphenyl) ethanamine]",REDUCTION IN AREA UNDER BLOOD GLUCOSE CURVE (%),[1]; 12.5 µ mol/kg orally,46%
"CNC(C)Cc1ccc(CC(C)NCC(O)c2cccc(Cl)c2)cc1 (stereo not shown) [Example 25, N-(2-(4-(2-N'-Methylaminopropyl)phenyl)-1-methylethyl) -2-hydroxy-2-(3-chlorophenyl)ethanamine]",REDUCTION IN AREA UNDER BLOOD GLUCOSE CURVE (%),[1]; 2.5 µ mol/kg orally,41%
"CCc1cccc(C(O)CNC(C)Cc2ccc(CNC)cc2)c1 (stereo not shown) [Example 10, N-(2-(4-N'Methylaminomethylphenyl)-1-methylethly)-2-hdroxy-2-(3-ethylphenyl) ethanamine]",REDUCTION IN AREA UNDER BLOOD GLUCOSE CURVE (%),[1]; 100.0 µ mol/kg orally,49%
"CNCc1ccc(CC(C)NCC(O)c2ccccc2)cc1 (stereo not shown) [Example 7, N-(2-(4-N'-Methylaminomethylphenyl)-1-methylethyl)-2-hydroxy-2-phenylethanamine]",g LIPID/MOUSE TREATED,"[2]; 9.9 mg/kg p.o. daily for 28 days, control 23.13",20.56 g
"CC(Cc1ccc(CN)cc1)NCC(O)c1ccccc1 (stereo not shown) [Example 1, N-(2-(4-Aminomethylphenyl)-1-methylethyl)-2-hydroxy-2-phenylethanamine]",g LIPID/MOUSE TREATED,"[2]; 6.25 mg/kg p.o. daily for 28 days, control 21.52",17.98 g
same,REDUCTION IN AREA UNDER BLOOD GLUCOSE CURVE (%),[1]; 2.5 µ mol/kg orally,29%
"CN[C@H](C)c1ccc(CC(C)NCC(O)c2cccc(Cl)c2)cc1 (stereo partly drawn) [Example 24, N-(2-(4-(1-(R)-N'-Methylaminoethyl)phenyl)-1-methylethyl) -2-hydroxy-2-(3-chlorophenyl)ethanamine]",REDUCTION IN AREA UNDER BLOOD GLUCOSE CURVE (%),[1]; 50 µ mol/kg orally,17%
"CN[C@@H](C)c1ccc(CC(C)NCC(O)c2cccc(Cl)c2)cc1 (stereo partly drawn) [Example 23, N-(2-(4-(1-(S)-N'-Methylaminoethyl)phenyl)-1-methylethyl)-2-hydroxy-2-(3-chlorophenyl)ethanamine]",REDUCTION IN AREA UNDER BLOOD GLUCOSE CURVE (%),[1]; 50 µ mol/kg orally,26%
"CNCCCCCCc1ccc(CC(C)NCC(O)c2cccc(Cl)c2)cc1 (stereo not shown) [Example 26, N-(2-(4-(6-N'-Methylaminohexyl)phenyl)-1-methylethyl)-2-hydroxy-2-(3-chlorophenyl) ethanamine]",REDUCTION IN AREA UNDER BLOOD GLUCOSE CURVE (%),[1]; 2.5 µ mol/kg orally,53%
"CC(=O)Oc1ccccc1C(=O)O [Aspirin, reference compound]",% Inhibition of re-sponse to collagen,[3]; 600(108) µmol(mg)/kg p.o.,29 p<0.05%
"CNCc1ccc(CC(C)NCC(O)c2cccc(Br)c2)cc1 (stereo not shown) [Example 12, N-(2-(4-N'-Methylaminomethylphenyl)-1-methylethyl)-2-hydroxy-2-(3-bromophenyl) ethanamine]",g LIPID/MOUSE TREATED,"[2]; 12.5 mg/kg p.o. daily for 28 days, control 24.60",20.38 g
same,REDUCTION IN AREA UNDER BLOOD GLUCOSE CURVE (%),[1]; 2.5 µ mol/kg orally,37%
"CNCc1ccc(CC(C)NCC(O)c2cccc(Cl)c2)cc1 (stereo not shown) [Example 8, N-(2-(4-N'-Methylaminomethylphenyl)-1-methylethyl)-2-hydroxy-2-(3-chlorophenyl) ethanamine]",REDUCTION IN AREA UNDER BLOOD GLUCOSE CURVE (%),[1]; 12.5 µ mol/kg orally,52%
same,ACTIVITY,[4]; 2 mg/rat ear,Active
same,% Inhibition of re-sponse to collagen,[3]; 10 µmol/kg p.o.,37 p<0.001%
"CC(Cc1ccc(CN)cc1)NCC(O)c1cccc(Cl)c1 (stereo not shown) [Example 6, N-(2-(4-Aminomethylphenyl}-1-methylethyl)-2-hydroxy-2-(3-chlorophenyl) ethanamine]",g LIPID/MOUSE TREATED,"[2]; 10.9 mg/kg p.o. daily for 28 days, control 18.75",17.38 g

# From patent publication EP0061907A1, “Secondary amines, their preparation, pharmaceutical compositions containing them and their use” (BEECHAM GROUP PLC, priority 1981, dated 1982)
